# Target: ASK1 (Apoptosis Signal-Regulating Kinase 1) (Homo sapiens (Human), UniProt Q99683)
# Assay: ASK1 (Apoptosis Signal-Regulating Kinase 1) TR-FRET Kinase Assay (Biochemical IC50)
# Settings: TR-FRET, biotin-MBP substrate, 20 min pre-incubation, ATP added as 300 μM solution
# Protocol: The ability of compounds to inhibit ASK1 kinase activity was determined using a time resolved fluorescence resonance energy transfer [TR-FRET] assay utilizing biotinylated myelin basic protein [biotin-MBP] as the protein substrate. […] The enzyme was allowed to pre-incubate with compound for 20 minutes prior to initiating the kinase reaction with the addition of 5 μL/well 300 μM ATP in buffer (50 mM MOPS, pH 7.0, 5 mM Mg-acetate, 1 mM DTT, 5% DMSO) using the Decrac Fluidics Equator. The kinase reactions were allowed to proceed for 20 minutes at ambient temperature and were subsequently stopped with the addition of 5 μL/well 25 mM EDTA using the Deerac Fluidics Equator. […] The TR-FRET signal was then read on a Perkin. Elmer Envision plate reader after incubating the plates at ambient temperature for 2 hours.
# Sequence of ASK1 (Apoptosis Signal-Regulating Kinase 1) (Q99683 649-946): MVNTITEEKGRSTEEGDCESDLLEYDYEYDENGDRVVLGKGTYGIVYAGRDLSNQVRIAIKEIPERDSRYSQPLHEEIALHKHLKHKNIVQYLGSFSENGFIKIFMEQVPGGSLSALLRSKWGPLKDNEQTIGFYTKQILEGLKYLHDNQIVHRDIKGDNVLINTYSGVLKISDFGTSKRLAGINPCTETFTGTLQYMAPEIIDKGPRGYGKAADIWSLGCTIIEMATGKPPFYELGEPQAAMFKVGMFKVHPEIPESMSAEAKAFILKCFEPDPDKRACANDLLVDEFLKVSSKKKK
row,IC50,SMILES
1,23 nM,"O=C(Nc1cccc(-c2nncn2C2CC2)n1)c1cccc(-n2cc(C3CC3)nn2)c1 [Example 269, 3-(4-cyclopropyl-1H-1,2,3-triazol-1-yl)-N-(6-(4-cyclopropyl-4H-1,2,4-triazol-3-yl)pyridin-2-yl)benzamide]"
2,107 nM,"O=C(Nc1cccc(-c2nncn2C2CC2)c1)c1cc(-c2nnc(C3CC3)s2)ccn1 [Example 270, 4-(5-cyclopropyl-1,3,4-thiadiazol-2-yl)-N-(3-(4-cyclopropyl-4H-1,2,4-triazol-3-yl)phenyl)picolinamide]"
3,24 nM,"COc1ccc(-c2ccc(C3CC3)nc2)cc1C(=O)Nc1cccc(-c2nncn2C2CC2)c1 [Example 271, N-(3-(4-cyclopropyl-4H-1,2,4-triazol-3-yl)phenyl)-5-(6-cyclopropylpyridin-3-yl)-2-methoxybenzamide]"
4,11 nM,"COc1ccc(-n2cnc(C3CC3)c2)cc1C(=O)Nc1cccc(-c2nncn2C2CC2)c1 [Example 272, 5-(4-cyclopropyl-1H-imidazol-1-yl)-N-(3-(4-cyclopropyl-4H-1,2,4-triazol-3-yl)phenyl)-2-methoxybenzamide]"

# Reference: patent publication USRE48711E1, “Apoptosis signal-regulating kinase inhibitors” (Gilead Sciences, Inc., priority 2009, dated 2021)
